Results taken from paper doi:10.1101/2025.05.02.651913 (bioRxiv, 2025).

System: MPXV strain hMPXV/USA/MA001/2022 (Lineage B.1, Clade IIb)
Assay type: cell-based, Mpox virus (MPXV)

Structure (SMILES)	Duplicate of Duplicate of Hits: No CPE
O=C(c1ccc(F)c(F)c1Nc1ccc(I)cc1F)N1CC(O)([C@@H]2CCCCN2)C1 (racemic) [MC-Cobimetinib (racemate), Cobimetinib (racemate)]	1
C#Cc1cccc(Nc2ncnc3cc(OCCOC)c(OCCOC)cc23)c1 [Erlotinib]	1
COc1cc(Nc2c(C#N)cnc3cc(OCCCN4CCN(C)CC4)c(OC)cc23)c(Cl)cc1Cl [LOPAC-Bosutinib, Bosutinib]	1
COc1cc2ncnc(Nc3cccc(Br)c3)c2cc1OC.Cl [LOPAC-PD153035 hydrochloride, PD153035 hydrochloride]	1
O=C(NOC[C@H](O)CO)c1ccc(F)c(F)c1Nc1ccc(I)cc1F [LOPAC-PD 0325901, Mirdametinib]	1
COc1cc2ncnc(Nc3cccc(Cl)c3)c2cc1OC [LOPAC-Tyrphostin AG 1478, Tyrphostin AG 1478]	1
COc1cc2ncnc(Nc3cccc(I)c3)c2cc1OC [MC-AG1557, AG1557]	1
C=CC(=O)Nc1cc2c(Nc3ccc(F)c(Cl)c3)ncnc2cc1C#CC(C)(C)N1CCN(C)CC1 [MC-AV-412 (free base), AV-412 (free base)]	1
C=CC(=O)Nc1cc(Nc2nccc(-c3cn(C)c4ccccc34)n2)c(OC)cc1N(C)CCNC.CS(=O)(=O)O.CS(=O)(=O)O.CS(=O)(=O)O [MC-AZ7550 Mesylate, AZ7550 Mesylate]	1
CCS(=O)(=O)c1cc(Nc2ncc(F)c(N(Cc3ccccc3C#N)c3cc(CO)ccc3C)n2)ccc1N1CCN(C)CC1 [MC-AZ13705339, AZ13705339]	1
C=CC(=O)Nc1cc(Nc2nccc(-c3c[nH]c4ccccc34)n2)c(OC)cc1N(C)CCN(C)C [MC-AZ-5104, AZ-5104]	1
CN(C)C/C=C/C(=O)Nc1cc2c(Nc3ccc(F)c(Cl)c3)ncnc2cc1O[C@H]1CCOC1.O=C(O)/C=C\C(=O)O.O=C(O)/C=C\C(=O)O [MC-Afatinib (dimaleate), Afatinib (dimaleate)]	1
C=CC(=O)Nc1cc(Nc2nccc(-c3cn(C4CC4)c4ccccc34)n2)c(OC)cc1N(C)CCN(C)C.CS(=O)(=O)O [MC-Almonertinib (mesylate), Almonertinib (mesylate)]	1
C=CC(=O)Nc1cc(Nc2nccc(-c3cn(C4CC4)c4ccccc34)n2)c(OC)cc1N(C)CCN(C)C [MC-Almonertinib, Almonertinib]	1
Cc1cccc(/C=N/Nc2cc(N3CCOCC3)nc(OCCc3ccccn3)n2)c1 [MC-Apilimod, Apilimod]	1
C=CC(=O)Nc1cccc(Oc2nc(Nc3ccc(N4CCN(C)CC4)c(F)c3)nc3[nH]ccc23)c1.O=C(O)/C=C\C(=O)O [MC-Avitinib (maleate), Avitinib (maleate)]	1
C=CC(=O)Nc1cccc(Oc2nc(Nc3ccc(N4CCN(C)CC4)c(F)c3)nc3[nH]ccc23)c1 [MC-Avitinib, Avitinib]	1
CNS(=O)(=O)Nc1nccc(Cc2c(C)c3ccc(Oc4ncccn4)cc3oc2=O)c1F [MC-Avutometinib, Avutometinib]	1
COc1c(F)cccc1Nc1c(-c2ccncc2OCC(C)(C)OC)[nH]c2c1C(=O)NCC2 [MC-BAY 2476568, BAY 2476568]	1
COc1cccc(Nc2ncnn3ccc(CN4CC[C@@H](N)[C@H](O)C4)c23)c1 [MC-BMS-690514, BMS-690514]	1
C=CC(=O)Nc1cc(Nc2nccc(-c3cn(CC(F)(F)F)c4ccccc34)n2)c(OC)cc1N(C)CCN(C)C [MC-Befotertinib, Befotertinib]	1
C=CC(=O)N1CCC[C@@H](n2nc(-c3ccc(Oc4ccccc4)cc3)c(C(N)=O)c2N)C1 [MC-Btk inhibitor 2, Btk inhibitor 2]	1
C=CC(=O)Nc1cc(C)ccc1Nc1nc(Nc2cc(OC)ncc2C)ncc1C(F)(F)F [MC-CC-90003, CC-90003]	1
CC#CC(=O)Nc1ccc2ncnc(Nc3cccc(Br)c3)c2c1 [MC-CL-387785, CL-387785]	1
C=CC(=O)Nc1cc2c(Nc3ccc(F)c(Cl)c3)ncnc2cc1OCCCN1CCOCC1 [MC-Canertinib, Canertinib]	1
CN(C)C/C=C/C(=O)Nc1cccc(-c2c(-c3ccccc3)oc3ncnc(N[C@H](CO)c4ccccc4)c23)c1 [MC-DBPR112, DBPR112]	1
C#Cc1cccc(Nc2ncnc3cc(OCCOC)c(OCCO)cc23)c1.Cl [MC-Desmethyl Erlotinib, Desmethyl Erlotinib]	1
C=CC(=O)Nc1cccc(-n2c(=O)cc(C)c3cnc(Nc4ccc(OCCN(C)C)cc4OC)nc32)c1.O=C(O)C(F)(F)F [MC-EGFR-IN-1 (TFA), EGFR-IN-1 (TFA)]	1

Structure (SMILES)	Duplicate of Duplicate of Hits: No CPE
C=CC(=O)Nc1cccc(-c2c(-c3ccccc3)oc3ncnc(N[C@H](CO)c4ccccc4)c23)c1 [MC-EGFR-IN-9, EGFR-IN-9]	1
CN1CCN(c2ccc(Nc3ncc4nc(Nc5ccccc5)n([C@@H]5CCN(S(=O)(=O)C6CC6)C5)c4n3)cc2)CC1 [MC-EGFR-IN-11, EGFR-IN-11]	1
COCc1c(-c2ccc(NC(=O)Nc3cc(C(F)(F)F)ccc3F)c(F)c2)c2c(N)ncnn2c1CN1CCOCC1 [MC-EOC317, EOC317]	1
Cc1cccc([C@@H](CO)NC(=O)[C@@H](C)N2Cc3ccc(-c4nc(NC5CCOCC5)ncc4Cl)cc3C2=O)c1 [MC-ERK1/2 inhibitor 1, ERK1/2 inhibitor 1]	1
C#Cc1cccc(Nc2ncnc3cc(OCCOC)c(OCCOC)cc23)c1.Cl [MC-Erlotinib (Hydrochloride), Erlotinib (Hydrochloride)]	1
C=CCn1cc(-c2ccc(NC(=O)Nc3cc(C(C)(C)C)on3)cc2)c2c(N)ncnc21 [MC-FLT3-IN-4, FLT3-IN-4]	1
Cc1c(CN2CCN(S(C)(=O)=O)CC2)sc2c(N3CCOCC3)nc(-c3cnc(N)nc3)nc12 [MC-GNE-477, GNE-477]	1
CNC(=O)c1ccccc1Nc1cc(Nc2ccc(N3CCN(CC(=O)N[C@H](C(=O)N4C[C@H](O)C[C@H]4C(=O)N[C@@H](C)c4ccc(-c5scnc5C)cc4)C(C)(C)C)CC3)cc2OC)ncc1C(F)(F)F [MC-GSK215, GSK215]	1
Cc1c(=O)n(C)c(Nc2ccc(I)cc2F)c2c(=O)n(C3CC3)c(=O)n(-c3cccc(N)c3)c12 [MC-GSK1790627, GSK1790627]	1
CCN1CCN(Cc2ccc(NC(=O)c3ccc(C)c(/C=C/c4cnc5[nH]ccc5c4OC)c3)cc2C(F)(F)F)CC1 [MC-HG6-64-1, HG6-64-1]	1
CCOc1cc2ncc(C#N)c(Nc3ccc(OCc4cccc(F)c4)c(Cl)c3)c2cc1NC(=O)/C=C/CN(C)C [MC-HKI-357, HKI-357]	1
O=C1Nc2cc3[nH]nc(-c4ccncc4)c3cc2CN1Cc1ccccc1 [MC-KO-947, KO-947]	1
CNc1ncc2cc(-c3cc(NC(=O)NCCC(C)(C)C)c(F)cc3C)c(C)nc2n1 [MC-LY3009120, LY3009120]	1
COc1cc2ncnc(Nc3ccc(F)c(Cl)c3)c2cc1OCCCN1C[C@@H]2OCCO[C@@H]2C1.CS(=O)(=O)O.CS(=O)(=O)O.O [MC-Larotinib (mesylate hydrate), Larotinib (mesylate hydrate)]	1
C=CC(=O)Nc1cc(Nc2nccc(-n3cc(CN(C)C)c(-c4ccccc4)n3)n2)c(OC)cc1N1CCOCC1 [MC-Lazertinib, Lazertinib]	1
CS[C@@]1(C(=O)Nc2ccc3[nH]nc(-c4ccc(OC(C)C)nc4)c3c2)CCN(CC(=O)N2CC=C(c3ccc(-c4ncn(C)n4)cc3)CC2)C1 [MC-MK-8353, MK-8353]	1
C=CC(=O)N[C@@H]1CN(c2nc(Nc3cn(C)nc3OC)c3ncn(C)c3n2)C[C@H]1F [MC-Mavelertinib, Mavelertinib]	1
CN(C)C/C=C/C(=O)Nc1cc2c(Nc3ccc(F)c(Cl)c3)ncnc2cc1OC(F)F [MC-Mefatinib (free base), Mefatinib (free base)]	1
N[C@@H]1c2ccccc2OC12CCN(c1cnc3c(N4CCCc5ncccc54)n[nH]c3n1)CC2 [MC-Migoprotafib, Migoprotafib]	1
C=CC(=O)Nc1cc(Nc2ncc(C(=O)OC(C)C)c(-c3cn(C)c4ccccc34)n2)c(OC)cc1N(C)CCN(C)C.O=C(O)CCC(=O)O [MC-Mobocertinib (succinate), Mobocertinib (succinate)]	1
C=CC(=O)Nc1cc(Nc2ncc(C(=O)OC(C)C)c(-c3cn(C)c4ccccc34)n2)c(OC)cc1N(C)CCN(C)C [MC-Mobocertinib, Mobocertinib]	1
C#Cc1cccc(Nc2ncnc3cc(OC)c(OCCCN4CCOCC4)cc23)c1 [MC-NRC-2694, NRC-2694]	1
COc1ncc(-c2ccc3nccc(C#CCN4CCN(S(C)(=O)=O)CC4)c3c2)cc1NS(=O)(=O)c1ccc(F)cc1F [MC-NSC781406, NSC781406]	1
Cc1cc(C(=O)Nc2nc3cccc(Cl)c3n2[C@@H]2CCCCN(C(=O)/C=C/CN(C)C)C2)ccn1 [MC-Nazartinib, Nazartinib]	1
CCOc1cc2ncc(C#N)c(Nc3ccc(OCc4ccccn4)c(Cl)c3)c2cc1NC(=O)/C=C/CN(C)C.O=C(O)/C=C\C(=O)O [MC-Neratinib (maleate), Neratinib (maleate)]	1
CCOc1cc2ncc(C#N)c(Nc3ccc(OCc4ccccn4)c(Cl)c3)c2cc1NC(=O)/C=C/CN(C)C [MC-Neratinib, Neratinib]	1
C=CC(=O)N1CCC[C@H](n2c(=O)n(-c3ccc(Oc4ccccc4)cc3)c3c(N)ncnc32)C1 [MC-ONO-4059 (analog), ONO-4059 (analog)]	1
